One block for each compound: values may come before it. Active and inactive are the calls of the source. The calls are words filed in the database; no cut-off is given here.
Legend:
[1] = tested on: HT-29; test: Cytotoxicity against human HT-29 cells after 48 hrs by Resazurin assay; conditions: HT-29, 48 h
[2] = tested on: HT-29; test: Cytotoxicity against human HT-29 cells after 48 hrs by resazurin assay; assay type: functional, cell-based; conditions: HT-29, 48 h
[3] = tested on: HeLa; test: Antimitotic activity in human HeLa cells assessed as disruption of interphase microtubule network at 3 nM after 6 hrs by DAPI staining-based immunofluorescence analysis; assay type: functional, cell-based
[4] = Inhibition of bovine brain microtubule polymerization by spectrophotometric analysis; set-up: species or system Bos taurus
[5] = tested on: HeLa; test: Antimitotic activity in human HeLa cells assessed as microtubule network damage at interphase at 1 nM after 6 hrs by DAPI staining-based immunofluorescence analysis; assay type: functional, cell-based
[6] = tested on: A549; test: Cytotoxicity against human A549 cells after 48 hrs by WST-8 assay; assay type: functional, cell-based; conditions: A549, 48 h
[7] = tested on: HeLa; test: Antimitotic activity in human HeLa cells assessed as multipolar spindle formation at 3 nM after 6 hrs by DAPI staining-based immunofluorescence analysis; assay type: functional, cell-based
[8] = tested on: HeLa; test: Cytotoxicity against human HeLa cells after 48 hrs by WST-8 assay; assay type: functional, cell-based
[9] = tested on: HeLa; test: Antimitotic activity in human HeLa cells assessed as disruption of interphase microtubule network at 10 nM after 6 hrs by DAPI staining-based immunofluorescence analysis; assay type: functional, cell-based
[10] = tested on: HeLa; test: Antimitotic activity in human HeLa cells assessed as change in dipolar spindle formation in metaphase at 1 nM after 6 hrs by DAPI staining-based immunofluorescence analysis; assay type: functional, cell-based
[11] = target: tubulin (Sus scrofa); test: Binding affinity to porcine tubulin by spectrophotometric analysis

SMILES: CC(C)(C)c1[nH]cnc1/C=c1\[nH]c(=O)/c(=C/c2cccc(C(=O)c3ccc(C(F)(F)F)cc3)c2)[nH]c1=O
IC50 [1]: 147 nM

SMILES: CC(C)(C)c1[nH]cnc1/C=c1\[nH]c(=O)/c(=C/c2cccc(C(=O)c3ccccc3Cl)c2)[nH]c1=O
IC50 [1]: 6 nM

SMILES: CC(C)(C)c1[nH]cnc1/C=c1\[nH]c(=O)/c(=C/c2cccc(C(=O)c3ccc(Br)cc3)c2)[nH]c1=O
IC50 [1]: 4 nM

SMILES: CC(C)(C)c1[nH]cnc1/C=c1\[nH]c(=O)/c(=C/c2ccc3c(c2)C(=O)c2ccccc2-3)[nH]c1=O
IC50 [2]: 2800 nM

SMILES: COc1ccc(C(=O)c2cccc(/C=c3\[nH]c(=O)/c(=C/c4nc[nH]c4C(C)(C)C)[nH]c3=O)c2)c(OC)c1
IC50 [1]: 1800 nM

SMILES: COc1ccc(C(=O)c2cccc(/C=c3\[nH]c(=O)/c(=C/c4nc[nH]c4C(C)(C)C)[nH]c3=O)c2)cc1OC
IC50 [1]: 7300 nM

SMILES: COc1ccccc1C(=O)c1cccc(/C=c2\[nH]c(=O)/c(=C/c3nc[nH]c3C(C)(C)C)[nH]c2=O)c1
IC50 [1]: 360 nM

SMILES: COc1ccc(C(=O)c2cccc(/C=c3\[nH]c(=O)/c(=C/c4nc[nH]c4C(C)(C)C)[nH]c3=O)c2)cc1
IC50 [1]: 3.8 nM

SMILES: CC(C)(C)c1[nH]cnc1/C=c1\[nH]c(=O)/c(=C/c2cccc(C(O)c3ccccc3)c2)[nH]c1=O (centres undefined)
IC50 [1]: 41 nM

SMILES: CC(C)(C)c1[nH]cnc1/C=c1\[nH]c(=O)/c(=C/c2cccc(C(=O)c3cccc(F)c3)c2)[nH]c1=O
IC50 [1]: 0.6 nM

SMILES: COc1ccc(/C=C\c2cc(OC)c(OC)c(OC)c2)cc1O [COMBRETASTATIN A4]
Activity [3]: inactive
IC50 [2]: 12000 nM
IC50 [4]: 550 nM
Activity [5]: inactive
IC50 [6]: 5.3 nM
Activity [7]: Active
IC50 [8]: 2.2 nM
Activity [9]: Active
Activity [10]: inactive

SMILES: CC(C)(C)c1[nH]cnc1/C=c1\[nH]c(=O)/c(=C/c2cccc(C(=O)c3cccc(Cl)c3)c2)[nH]c1=O
IC50 [1]: 2 nM

SMILES: COc1cccc(C(=O)c2cccc(/C=c3\[nH]c(=O)/c(=C/c4nc[nH]c4C(C)(C)C)[nH]c3=O)c2)c1
IC50 [1]: 39 nM

SMILES: COc1cc(C(=O)c2cccc(/C=c3\[nH]c(=O)/c(=C/c4nc[nH]c4C(C)(C)C)[nH]c3=O)c2)cc(OC)c1OC
IC50 [1]: 2500 nM

SMILES: CC(C)(C)c1[nH]cnc1/C=c1\[nH]c(=O)/c(=C/c2ccc(C(=O)c3ccccc3)cc2)[nH]c1=O
IC50 [1]: 1200 nM

SMILES: COc1cc2c(c(OC)c1OC)-c1ccc(OC)c(=O)cc1[C@@H](NC(C)=O)CC2 [COLCHICINE]
IC50 [6]: 50.6 nM
IC50 [1]: 9.3 nM
IC50 [8]: 20.2 nM

SMILES: CC(C)(C)c1[nH]cnc1/C=c1\[nH]c(=O)/c(=C/c2cccc(C(=O)c3ccccc3F)c2)[nH]c1=O
IC50 [1]: 3 nM

SMILES: CC(C)(C)c1[nH]cnc1/C=c1\[nH]c(=O)/c(=C/c2cccc(C(=O)c3ccc(Cl)cc3)c2)[nH]c1=O
IC50 [1]: 1.1 nM

Kd [11]: 72 nM
IC50 [4]: 900 nM
SMILES: CC(C)(C)c1[nH]cnc1/C=c1\[nH]c(=O)/c(=C/c2cccc(C(=O)c3ccc(F)cc3)c2)[nH]c1=O
Activity [3]: Active
Activity [5]: inactive
IC50 [6]: 0.8 nM
IC50 [1]: 0.5 nM
Activity [7]: Active
IC50 [8]: 1.7 nM
Activity [9]: Active
Activity [10]: inactive

SMILES: COc1cccc(C(=O)c2cccc(/C=c3\[nH]c(=O)/c(=C/c4nc[nH]c4C(C)(C)C)[nH]c3=O)c2)c1OC
IC50 [1]: 955 nM

— ChEMBL document CHEMBL2046436, “Synthesis and structure-activity relationships of benzophenone-bearing diketopiperazine-type anti-microtubule agents” (Bioorg Med Chem, 2012)
